# Laboratory results: patent publication US20250099420A1, “SMALL MOLECULE MODULATORS OF GPR139 COMPLEX” (University of Florida Research Foundation, Incorporated, priority 2022, published 2025)
# Like-named read-outs stand apart in the source and are kept apart here.
# Key:
# [1] = tested on: parental HEK cells; assay: HEK parental Agonist Counterscreen Assay (non-transfected cells); format: cell-based; conditions: for Averaged Max % Response (±St. Dev.): activity relative to known control
# From the text: The high control for the agonist counterscreen was Forskolin not acetylcholine.
# [2] = molecular target: T1, GPR139 (Homo sapiens, UniProt Q6DWJ6); assay: GPR139 Agonist titration / agonist counterscreen assay (calcium detection, HEK-GPR139 cells); format: cell-based; parameters: expressed in transfected cells; host or cells: HEK Aequorin cells, Maxcyte transient transfection; conditions: GPR139 Agonist Activity; for EC50: read-out: EC50; for Averaged Max % Response (±St. Dev.): activity relative to known control
# T1 sequence (Q6DWJ6 1-353): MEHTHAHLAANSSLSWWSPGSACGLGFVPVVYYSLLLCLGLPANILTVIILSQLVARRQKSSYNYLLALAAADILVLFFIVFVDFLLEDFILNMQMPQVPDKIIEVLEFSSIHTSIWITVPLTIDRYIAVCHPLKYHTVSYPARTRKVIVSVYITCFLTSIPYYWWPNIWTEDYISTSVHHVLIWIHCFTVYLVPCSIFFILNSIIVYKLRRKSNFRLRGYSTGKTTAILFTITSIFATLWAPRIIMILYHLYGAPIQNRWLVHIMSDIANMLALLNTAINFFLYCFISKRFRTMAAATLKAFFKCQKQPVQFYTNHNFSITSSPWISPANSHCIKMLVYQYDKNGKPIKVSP
# Description: GPR activity was assessed using a calcium detection assay. […] Negative control samples were treated with DMSO. […] Intracellular calcium was measured using Calcium 5.
# [3] = HEK Agonist Activity section of Table 4 (parental HEK counterscreen)
# [4] = Homo sapiens, HEK293, HEK Agonist Activity section of Table 4 (parental HEK counterscreen)
# [5] = values printed in E-notation without unit
# [6] = Homo sapiens, HEK293, HEK Agonist Activity, parental non-transfected HEK cells
Lipophilic Efficiency (logD) ([1]; HEK Agonist Activity section),Lipophilic Efficiency (logP) ([1]; HEK Agonist Activity section),Efficiency Ligand [2],Hill Slope [2],Lipophilic Efficiency (logD) [2],Lipophilic Efficiency (logP) [2],EC50 ([2]; HEK-GPR139 cells) [nM],Averaged Max % Response (±St. Dev.) [2] [%],Lipophilic Efficiency (logD) ([2]; based on logD),Lipophilic Efficiency (logP) ([2]; based on logP),Hill Slope ([2]; fitted dose-response curve),Efficiency Ligand ([2]; ligand efficiency),"EC50 [2, 5] [nM]",Lipophilic Efficiency (logD) ([1]; HEK Agonist Activity),Lipophilic Efficiency (logP) ([1]; HEK Agonist Activity),SMILES,Averaged Max % Response (±St. Dev.) ([1]; HEK Agonist Activity section) [%],"EC50 [1, 4] [nM]",Averaged Max % Response (±St. Dev.) ([1]; HEK Agonist Activity) [%],also measured
3.34,3.34,0.41,0.57,4.90,4.90,386,94.97 ± 7.83,,,,,,,,COc1ccc(CSc2nnc(-c3cccnc3)n2N)cc1 [SR-01000284323],3.28 ± 6.64,,,"EC50 [1, 3]: > 14100 nM"
1.68,1.68,,,,,,106.36 ± 3.74,3.70,3.70,0.50,0.36,,,,COc1ccc(CCCC(=O)c2cccc(-c3ccc(OC)cc3)c2)cc1 [SR-01000655128],0.74 ± 3.27,> 14100,,
2.09,2.09,,,,,,108.22 ± 25.63,4.61,4.61,0.51,0.35,48.1,,,CC1CC(C)CN(C(=O)C2C3C=CC4(CN(Cc5ccccc5Cl)C(=O)C24)O3)C1 (stereo not drawn) [SR-01000583192],13.45 ± 13.24,,,"EC50 [1, 3]: > 15900 nM"
2.95,2.95,0.35,0.75,4.28,4.28,661,81.90 ± 12.88,,,,,,,,CS(=O)(=O)c1cccc(C(=O)NCCCN2CCc3ccccc32)c1 [SR-01000387617],2.04 ± 4.49,> 14100,,
2.62,2.62,,,,,,80.59 ± 9.85,4.66,4.66,0.95,0.32,,,,C=C1C(CC(=C)C2Cc3ccc4ccccc4c3C2)=CC(c2ccccc2)=CC1C (stereo not drawn) [SR-00000002785],−10.50 ± 3.98,> 14100,,
,,,,,,,81.24 ± 9.74,4.30,4.30,2.01,0.37,23.7,1.53,1.53,COc1ccc(CCNC(=O)Nc2ccc3c(c2)CCCN3C(=O)C2CC2)cc1 [SR-01000923125],,,32.19 ± 4.93,"EC50 [1, 6]: > 14100 nM"
2.20,2.20,,,,,,100.32 ± 4.53,4.12,4.12,0.79,0.45,,,,Cc1ccc(CNC(=O)COC(=O)c2ccc(Br)o2)cc1 [SR-01000042100],17.67 ± 3.11,> 14400,,
2.44,2.44,,,,,,99.15 ± 6.04,4.29,4.29,0.44,0.32,196,,,Cc1nc(CNC(=O)CCC2(Cc3cccc4ccccc34)CCC(=O)N2)cs1 (stereo not drawn) [SR-01000187393],6.35 ± 6.79,> 14100,,
,,,,,,,105.15 ± 8.65,5.11,5.11,0.92,0.39,15.7,2.16,2.16,Cc1c(C(=O)NC(C)(C)CO)cnn1-c1ncc2c(n1)-c1ccccc1CC2 [SR-01000239973],,,−7.52 ± 3.99,"EC50 [1, 6]: > 14100 nM"
2.40,2.40,,,,,,103.63 ± 9.70,4.25,4.25,0.89,0.32,205,,,O=C(CN1C(=O)NC2(CCc3ccccc3C2)C1=O)N1CCc2ccccc2C1 (stereo not drawn) [SR-01000062726],−12.60 ± 9.55,> 14500,,
,,,,,,,101.90 ± 10.65,3.89,3.89,0.63,0.38,28.1,1.19,1.19,CCOc1nn(CC)cc1-c1nnc(SCc2ccc(C(=O)OC)cc2)n1C [SR-01000919746],,,−13.54 ± 17.63,"EC50 [1, 6]: > 14100 nM"
1.31,1.30,0.36,0.97,2.40,2.39,1200,72.38 ± 5.96,,,,,,,,Cc1cc(Br)ccc1OCC(=O)NNC(=O)c1ccccc1C [SR-01000318521],6.11 ± 9.12,> 14100,,
,,,,,,,92.66 ± 5.93,4.45,4.45,0.62,0.40,19.4,1.65,1.65,COc1cc(-c2nnc(COc3ccc(Cl)cc3C)o2)cc(OC)c1OC [SR-01000504687],,,−3.10 ± 6.59,"EC50 ([1]; HEK Agonist Activity, parental non-transfected HEK cells): > 12200 nM"
2.79,2.79,0.30,1.07,3.46,3.46,3000,68.12 ± 14.87,,,,,,,,O=C(CCS(=O)(=O)c1cccc2nonc12)NCCc1ccc(Cl)cc1 [SR-01000119565],5.54 ± 5.16,,,"EC50 [1, 3]: > 14100 nM"
2.12,2.12,0.36,1.22,3.52,3.52,554,77.11 ± 5.52,,,,,,,,COC(=O)c1ccc(NC(=O)CNC(=O)C2CCCCC2)c(C)c1 [SR-01000246445],30.43 ± 4.82,> 14100,,
,,,,,,,96.70 ± 23.19,4.05,4.05,0.19,0.57,,1.09,1.09,CC1=CN=C(CCc2ccc(F)c3ccccc23)C1 [SR-01000525232],,,−17.88 ± 3.50,"EC50 [1, 6]: > 17400 nM"
,,,,,,,117.24 ± 4.32,3.74,3.74,0.61,0.36,40.5,1.21,1.21,CC1(c2ccc3ccccc3c2)NC(=O)N(CC(=O)Nc2ccccc2Cl)C1=O (stereo not drawn) [SR-01000066950],,,2.95 ± 8.11,"EC50 [1, 6]: > 13800 nM"
2.09,2.08,0.38,0.60,3.68,3.67,366,111.41 ± 5.44,,,,,,,,O=C(CSc1ccc(Cl)cc1)NNC(=O)c1ccc([N+](=O)[O-])cc1 [SR-01000286858],4.98 ± 9.07,> 14100,,
1.13,1.13,,,,,,139.09 ± 25.80,3.02,3.02,0.40,0.36,181,,,CC(C)c1ccc(NC(=O)Cn2ncc3c2-c2ccccc2OC3)cc1 [SR-01000098920],10.87 ± 9.19,,,"EC50 [1, 3]: > 14100 nM"
